{
  "source": "paper PMC10313921",
  "about": "“A living ex vivo platform for functional, personalized brain cancer diagnosis” (Cell Reports Medicine, 2023)",
  "assay_type_in_all_cases": "cell-based, human",
  "key": {"[1]": {"test_system": "MB231Br (breast cancer metastasis to brain)", "experiment": "Drug screening of MB231Br tumor foci on OBSCs", "conditions": "MB231BR on OBSCs"}, "[2]": {"test_system": "U373WT (wild-type established GBM line)", "experiment": "Drug screening of U373WT tumor foci on OBSCs", "procedure": "(§1) Tumor cells (0.17 μL, 25,000 cells) were seeded onto OBSCs 2h after slicing, with one tumor seeded in the center of each hemisphere for a total of two tumor foci per OBSC. BSM was changed 24h after slicing. Fluorescence images were taken 0 h, 24 h, and 96 h post-seeding for normalization of tumor size. Bioluminescence readouts were also taken at 0 h, 24 h, and 96 h post seeding for assessment of cell viability. Luciferin was added underneath the culture insert and allowed to incubate for 10 min before bioluminescence measurement on an AMI optical imaging system.\n(§2) Tumor cells were seeded onto OBSCs 2h after slicing as described above. One day after tumor seeding, six concentrations of each drug were diluted in the media underneath each culture insert, or XRad was applied using an X-Rad 320 Precision X-ray machine (n = 4 tumor foci per concentration; n ≥ 24 tumor foci per drug per cell line). Three days after treatment, the bioluminescence of live tumor cells was measured using an AMI optical imager (Spectral Instruments) and dose-response curves were generated. Tumor survival was normalized to day one tumor fluorescence and compared to an untreated control group.\n(§3) Several weighted parameters were factored into an overall drug sensitivity score.\n(§4) For DSS parameters 1–6, therapeutic windows were calculated by comparing OBSC toxicity and tumor response at the doses where tumor kill passed through the DSS parameter (Table S1 and S3). For DSS parameter 7, the therapeutic window was calculated by comparing the slopes through the tumor EC50 and the OBSC tox EC50. For DSS parameter 8, the therapeutic window was calculated by comparing the areas under tumor kill and OBSC tox curves. Normalized therapeutic window ratios for DSS parameters 1–8 within each drug-tumor-OBSC interaction were calculated in the following manner: within each window, values ranged from +1 to −1, where values approaching +1 signify increasing tumor kill relative to normal tissue toxicity, and values approaching −1 indicate agents where tumors remained highly viable while toxicity to the normal OBSC tissue was elevated. DSS parameters 9–11 were determined based on the behavior of the tumor in response to the drug, as defined above.\n(§5) All individually weighed parameters were added together to generate the DSS. Overall DSS from 0 to 100 signify increasing efficacy in tumor kill relative to OBSC toxicity, while scores from 0 to −100 describe scenarios in which tumors thrive more effectively than OBSCs for a given treatment. Dose-response values were calculated via linear interpolation of raw data, not from best-fit curve equations."}, "[3]": {"test_system": "7 cell lines (MB231Br, LN229, U373WT, U373KO, GBM8, MS21, PDIPG)", "experiment": "Drug screening on OBSCs, summary over the panel of seven tumor lines", "conditions": "number of lines responding", "procedure": "as §1, §2, §3, §4, §5"}, "[4]": {"test_system": "GBM8 (high-passage patient-derived GBM line)", "experiment": "Drug screening of GBM8 tumor foci on OBSCs", "conditions": "GBM8 on OBSCs", "procedure": "as §1, §2, §3, §4, §5"}, "[5]": {"test_system": "MS21 (low-passage patient-derived GBM line)", "experiment": "Drug screening of MS21 tumor foci on OBSCs", "conditions": "MS21 on OBSCs", "procedure": "as §1, §2, §3, §4, §5"}, "[6]": {"test_system": "U373KO (RAD18 knockout of U373WT via CRISPR)", "experiment": "Drug screening of U373KO tumor foci on OBSCs", "conditions": "U373 KO on OBSCs", "procedure": "as §1, §2, §3, §4, §5"}, "[7]": {"test_system": "LN229 (established GBM line)", "experiment": "Drug screening of LN229 tumor foci on OBSCs", "procedure": "as §1, §2, §3, §4, §5"}, "[8]": {"test_system": "PDIPG (low-passage pediatric patient-derived line)", "experiment": "Drug screening of PDIPG tumor foci on OBSCs", "conditions": "PDIPG on OBSCs", "procedure": "as §1, §2, §3, §4, §5"}, "[9]": {"conditions": "area under the dose-response curve, trapezoidal rule"}, "[10]": {"conditions": "dose required to kill 10% of the tumor"}, "[11]": {"conditions": "dose required to kill 25% of the tumor"}, "[12]": {"conditions": "dose required to kill 50% of the tumor"}, "[13]": {"conditions": "dose required to kill 75% of the tumor"}, "[14]": {"conditions": "dose required to kill 90% of the tumor"}, "[15]": {"conditions": "dose required to kill 50% of the tumor, read-out: EC50"}, "[16]": {"conditions": "dose required to kill 90% of the tumor, read-out: EC90"}},
  "data": [
    {"smiles": "N.N.[Cl][Pt][Cl]", "note": "[Cisplatin]", "values": [
      {"measurement": "Killing at highest dose", "setting": "[1]", "value": "1.00E+00 fraction of tumor population killed"},
      {"measurement": "AUC", "setting": "[1]; [9]", "value": "6.20E+01"},
      {"measurement": "EC10", "setting": "[1]; [10]", "value": 74.1, "unit": "µM"},
      {"measurement": "EC25", "setting": "[1]; [11]", "value": 87.1, "unit": "µM"},
      {"measurement": "EC50", "setting": "[1]; [12]", "value": 125, "unit": "µM"},
      {"measurement": "EC75", "setting": "[1]; [13]", "value": 188, "unit": "µM"},
      {"measurement": "EC90", "setting": "[1]; [14]", "value": 225, "unit": "µM"},
      {"measurement": "Slope", "setting": "[1]; slope through the EC50", "value": "-4.00E-03"},
      {"measurement": "Killing at highest dose", "setting": "[2]; U373 WT on OBSCs", "value": "1.00E+00 fraction of tumor population killed"},
      {"measurement": "AUC", "setting": "[2]; U373 WT on OBSCs, area under the dose-response curve, trapezoidal rule", "value": "1.33E+01"},
      {"measurement": "EC10", "setting": "[2]; U373 WT on OBSCs, dose required to kill 10% of the tumor", "value": 20.3, "unit": "µM"},
      {"measurement": "EC25", "setting": "[2]; U373 WT on OBSCs, dose required to kill 25% of the tumor", "value": 28.4, "unit": "µM"},
      {"measurement": "EC50", "setting": "[2]; U373 WT on OBSCs, dose required to kill 50% of the tumor", "value": 41.9, "unit": "µM"},
      {"measurement": "EC75", "setting": "[2]; U373 WT on OBSCs, dose required to kill 75% of the tumor", "value": 65.2, "unit": "µM"},
      {"measurement": "EC90", "setting": "[2]; U373 WT on OBSCs, dose required to kill 90% of the tumor", "value": 87.9, "unit": "µM"},
      {"measurement": "Slope", "setting": "[2]; U373 WT on OBSCs, slope through the EC50", "value": "-1.85E-02"},
      {"measurement": "DSS (drug sensitivity score)", "setting": "[2]; U373 WT, scale -100 to +100, tumor kill relative to OBSC toxicity", "value": 62},
      {"measurement": "response / killing over the 7 cell lines", "setting": "[3]", "value": "robust response"},
      {"measurement": "Killing at highest dose", "setting": "[4]", "value": "1.00E+00 fraction of tumor population killed"},
      {"measurement": "AUC", "setting": "[4]; [9]", "value": "1.76E-01"},
      {"measurement": "EC10", "setting": "[4]; [10]", "value": 0.0906, "unit": "µM"},
      {"measurement": "EC25", "setting": "[4]; [11]", "value": 0.226, "unit": "µM"},
      {"measurement": "EC50", "setting": "[4]; [15]", "value": 0.453, "unit": "µM"},
      {"measurement": "EC75", "setting": "[4]; [13]", "value": 2.74, "unit": "µM"},
      {"measurement": "EC90", "setting": "[4]; [16]", "value": 4.2, "unit": "µM"},
      {"measurement": "Slope", "setting": "[4]; slope through the EC50", "value": "-1.10E+00"},
      {"measurement": "Killing at highest dose", "setting": "[5]", "value": "9.99E-01 fraction of tumor population killed"},
      {"measurement": "AUC", "setting": "[5]; [9]", "value": "4.20E+00"},
      {"measurement": "EC10", "setting": "[5]; [10]", "value": 4.55, "unit": "µM"},
      {"measurement": "EC25", "setting": "[5]; [11]", "value": 11.6, "unit": "µM"},
      {"measurement": "EC50", "setting": "[5]; [15]", "value": 24.7, "unit": "µM"},
      {"measurement": "EC75", "setting": "[5]; [13]", "value": 37.9, "unit": "µM"},
      {"measurement": "EC90", "setting": "[5]; [16]", "value": 45.7, "unit": "µM"},
      {"measurement": "Slope", "setting": "[5]; slope through the EC50", "value": "-1.90E-02"},
      {"measurement": "Killing at highest dose", "setting": "[6]", "value": "1.00E+00 fraction of tumor population killed"},
      {"measurement": "AUC", "setting": "[6]; [9]", "value": "1.56E+01"},
      {"measurement": "EC10", "setting": "[6]; [10]", "value": 33.2, "unit": "µM"},
      {"measurement": "EC25", "setting": "[6]; [11]", "value": 36.5, "unit": "µM"},
      {"measurement": "EC50", "setting": "[6]; [12]", "value": 42, "unit": "µM"},
      {"measurement": "EC75", "setting": "[6]; [13]", "value": 47.6, "unit": "µM"},
      {"measurement": "EC90", "setting": "[6]; [14]", "value": 114, "unit": "µM"},
      {"measurement": "Slope", "setting": "[6]; slope through the EC50", "value": "-4.53E-02"},
      {"measurement": "Killing at highest dose", "setting": "[7]", "value": "1.00E+00 fraction of tumor population killed"},
      {"measurement": "AUC", "setting": "[7]; [9]", "value": "7.69E+01"},
      {"measurement": "EC10", "setting": "[7]; [10]", "value": 74.6, "unit": "µM"},
      {"measurement": "EC25", "setting": "[7]; [11]", "value": 81.3, "unit": "µM"},
      {"measurement": "EC50", "setting": "[7]; [12]", "value": 92.4, "unit": "µM"},
      {"measurement": "EC75", "setting": "[7]; [13]", "value": 136, "unit": "µM"},
      {"measurement": "EC90", "setting": "[7]; [14]", "value": 205, "unit": "µM"},
      {"measurement": "Slope", "setting": "[7]; slope through the EC50", "value": "-2.20E-03"},
      {"measurement": "Killing at highest dose", "setting": "[8]", "value": "1.00E+00 fraction of tumor population killed"},
      {"measurement": "AUC", "setting": "[8]; [9]", "value": "4.87E+00"},
      {"measurement": "EC10", "setting": "[8]; [10]", "value": 3.17, "unit": "µM"},
      {"measurement": "EC25", "setting": "[8]; [11]", "value": 7.94, "unit": "µM"},
      {"measurement": "EC50", "setting": "[8]; [15]", "value": 16.8, "unit": "µM"},
      {"measurement": "EC75", "setting": "[8]; [13]", "value": 27.3, "unit": "µM"},
      {"measurement": "EC90", "setting": "[8]; [16]", "value": 41.5, "unit": "µM"},
      {"measurement": "Slope", "setting": "[8]; slope through the EC50", "value": "-2.73E-02"}
    ]}
  ]
}
